Measured values reported in PMC5907308, “21st Brazilian Diabetes Society Congress” (Diabetology & Metabolic Syndrome, 2018).
Like-named read-outs stand apart in the source and are kept apart here.

Assays:
OVX female Swiss mice = format: in vivo, mouse
Protocol: (§1) Methods: Female Swiss mice with 80–100 days of life were OVX, after 2 weeks females in anestrous were distributed in the control groups (CTL): fed with normolipid diet and water containing 0.01% ethanol (vehicle); BPA control (CBPA): normolipid diet and water containing 0.01% ethanol and 1 μg/mL BPA; HFD: diet containing 36 g% fat and vehicle; and (HBPA): HFD and BPA. After 3 months, glucose tolerance test (GTT) and islet isolation for insulin secretion were performed (CEUA UFRJ-Macaé: MAC035 approval). Data were analyzed for the distribution of normality (Shapiro–Wilk), followed by analysis of variances: parametric (ANOVA followed by Newman–Keuls) or non-parametric (Kruskal–Wallis followed by Dunns; P < 0.05).

[1] = system: islets isolated from OVX female Swiss mice; test: Glucose-stimulated insulin secretion of isolated islets; format: cell-based, mouse; settings: 2.8 mM glucose; HFD islets 1.2 ± 0.14
Protocol: as §1

diabetic pregnant women = format: in vivo, human; settings: 2009-2016, medical records
Protocol: Methods: We analyzed the medical records of the diabetic pregnant women who were attended at the Endocrinology Clinic of Hospital do Servidor Público Municipal between 2009 and 2016. The incidence of fetal macrosomia, prematurity, respiratory distress, hospitalization in intensive care unit and abortion were analyzed and correlated to the glycemic control. Good glycemic control was defined by the presence of at least 80% of capillary blood glucose within the following range: pre-prandial < 90 mg/dL, 1 h postprandial < 140 mg/dL, 2 h postprandial < 120 mg/dL

patient with glucagonoma = test: Case report: glucagonoma; format: in vivo, human; settings: zinc vitamin supplement and Octreotide
Description: Case report: patient four, hospitalized in 2015 for investigation of cholestatic syndrome associated with pancreatic mass of 51x48 mm evidenced on abdominal tomography (15/05/03). The patient underwent corpocaudal pancreatectomy and total splenectomy, with free surgical margins, but with angiolymphatic invasion. […] The patient received chemotherapy with gemcitabine which was replaced by Folfirinox. However, after 1 year without medical follow-up, they returned presenting weight loss, cutaneous disseminated lesions in the upper and lower limbs (Fig. 1), trunk and genitalia, angular cheilitis, macroglossia, deep venous thrombosis of the lower limbs and glycemia above 400 mg/dl. Figure 1: Cutaneous disseminated lesions It was used several antimicrobial regimens to treat skin lesions, unsuccessful, and performed biopsies of the skin, that diagnosis psoriasiform spongious dermatitis. The case was referred to the endocrinology departament and we did the diagnosis of glucagonoma, based on the symptoms and skin lesions, confirmed by pancreatic glucagon levels of 722 pg/ml (reference value < 208 pg/ml). […] We considered diagnosis hypothesis of adrenal insufficiency and after offered hydrocortisone, it was observed improvement in their condition in 24 h.

[2] = system: patient with mucormycosis; test: Oral mucormycosis in a diabetic patient, case report; format: in vivo, human; settings: treated for 10 days
Description: Case presentation: person, admitted with diabetic ketoacidosis. On the 5th day of hospitalization, they complained of odynophagia, without other symptoms. On examination of the oral cavity, was found an ulcerated, infiltrative, whitish, and non-removable lesion in the soft palate (Fig. 1). No abnormalities were found in laboratory tests.

[3] = system: patients with long-standing T1DM; test: Mixed-meal tolerance test + oral 5 mg glibenclamide, ultrasensitive C-peptide; format: in vivo, human; settings: 4 of 6 T1DM patients
Protocol: Fasting blood was taken for measurement of C-peptide (ELISA; Mercodia® (Uppsala, Sweden; cat.Nº10-1141-01). Thirty one patients (24,5%) had C-peptide > 10 pmol/L or 0.03 ng/ml. Six patients were randomly recruited to undergo a mixed-meal tolerance test + oral 5 mg glibenclamide.

child with CGL type 2 = test: Case report: high doses of insulin in congenital generalized lipodystrophy; format: in vivo, human
Protocol: Case: Child with clinical diagnosis of CGL type 2 and diagnosis of diabetes for 1 year. Using Glargina and Lispro insulin basal/bolus (5.1 IU/kg/day) presented mean daily capillary glycemia above 600 mg/dl, associated with irritability, low weight and voracious appetite. Interned for intravenous insulin therapy and nutritional adjustment with standardized diet of 1600 kcal/day fractionated in 7 meals. Initiated continuous infusion of regular insulin (RI), 6.1UI/kg/day. […] Subsequently, it was modified to intramuscular administration, in 5 application times, without differences in glycemic averages. On the 36 th day, Degludeca insulin was introduced (9.3 IU/kg/day) associated with RI (18.2 U/kg/day), evolving within the first 24 h with improved glycemia (180 ± 42 mg/dl). […] After approximately fivefold increase in the initial insulin dose, there was improvement in glycemia, irritability, weight gain and decreased appetite.

T1D patients < 18 years = test: Real-world clinical follow-up of T1D patients < 18 years switched to insulin degludec; format: in vivo, human; settings: n = 9
Description: Information about HbA1c, insulin dose, weight and frequency of hypoglycaemia (self-reported by patients/parents) were collected in every consultant.

[4] = system: elderly patients with T2DM; test: Pilot randomized trial Ideg vs Iglar-U100 with CGM; format: in vivo, human
Protocol: Methods: It is a pilot study with ten patients during six weeks, randomized, prospective, controlled and open label trial. Inclusion criteria: T2DM, age over 60 years, A1C from 7 to 10%, use of NPH insulin with or without oral antidiabetic drugs. […] They were evaluated for glucose variability (GV) and HYPOs by continuous glucose monitoring (CGM) after 2 weeks of treatment with either insulin.

type 2 diabetic patient = test: Case report: liraglutide added to insulin degludec and metformin; format: in vivo, human; settings: 30 days of Insulin Degludec 16U with metformin
Protocol: patient one, type 2 diabetic for 3 years, using Gliclazide 60 mg/day and Metformin 1500 mg/day. They reported asthenia and difficulty losing weight. […] To optimize patient glycemic control and weight loss, Liraglutide 1.2 mg/day was initiated. […] The insulin dose was reduced to 10 U and reassessed in 30 days for possible discontinuation of insulin therapy. GLP- 1 receptor agonists stimulate insulin secretion in a […] manner, inhibit glucagon secretion and hepatic glucose output, delay gastric emptying, induce satiety, reduce appetite, and cause weight loss. […] It is a therapeutic option with action well established in weight loss, metabolic and glycemic improvement in the DM2 patient. However, its action on HbA1C reduction was independent of weight loss, evidencing intensive glycemic control with HbA1C between 6.5 and 7.0% even with discrete or even absent weight loss.

patient with DRIASM = test: Insulin degludec in DRIASM, case report; format: in vivo, human
Description: Discussion: DRIASM is a rare syndrome, characterized by extreme resistance to SC and IM insulin, whose pathophysiology remains unknown. There are few treatments available and most are ineffective. The use of intraperitoneal insulin pump is the therapy with the best result so far, but it is not available in Brazil. Another possibility is the PTA, initially proposed by our group and then performed in other countries. […] After SC injection, the di-hexamers form a stable depot of multi-hexamer chains, with gradual dissociation of these chains into absorbed monomers.

patients with T2D = test: Network meta-analysis Gla-300 vs IDeg (inputs of the cost-effectiveness model); format: in vivo, human; settings: estimated by network meta-analysis
Description: Methods: This modelling analysis simulated a cohort representing patients in the EDITION 2 and 3 trials using the IMS Core Diabetes Model with a time horizon of 50 years (lifetime) for 1,000,000 patients starting at 62 years old. […] The treatment cost was $1,561 per SHE and $13.65 per NSHE (2015 $). Utilities to estimate quality-adjusted life years (QALYs) for multiple comorbidities were applied using the minimum utility approach. A disutility of -0.0118 was applied for SHE, and method of diminishing marginal disutility for NSHE.

[5] = system: patients with DM 1 and DRIASM; test: Case reports: IDeg in resistance to subcutaneous and intramuscular insulin (DRIASM); format: in vivo, human; settings: patient 1; IDeg since December 2015
Protocol: It was suspected of diabetes mellitus with resistance to insulin administered subcutaneously or intramuscularly (DRIASM). […] After that it was decided to perform a therapeutic test with IDeg. […] They remained in use of IDeg 80 UI/d and lispro 600 UI/d. […] An insulin challenge test was performed with SC and IM NPH/Glargina/Detemir and IV regular insulin. […] They remained in use of IDeg 80 UI/d and aspart 2000 UI/d.

[6] = system: inpatient population with diabetes; test: Degludeca vs NPH, both with Regular Insulin, in hospital (8 patients per group); settings: human, in vivo
Protocol: Methods: We conducted a retrospective, randomized study to compare the efficacy and safety of different basal insulin (Degludeca versus NPH), both on Basal-bolus insulin regimen on inpatient population with diabetes. Data were collected from the medical records, between May, 2016 until April, 2017. 8 patients were selected and randomized in each group. We established optimal glycemic control for patients with capillary glucose below 140 mg/dl in fasting and before main meals and below 180 mg/dL for 2 h after main meals. The criteria for excellent glycemic control was to achieve at least 70% within the previously established target and for acceptable glycemic control, those patients who had between 60% and 69% of the glycemia within the established target. The total number of hypoglycemia was assessed and classified as severe hypoglycemia (< 40 mg/dl) and mild hypoglycemia (< 70 mg/dl) as well as nocturnal hypoglycemia. In addition, the time required to achieve excellent or acceptable glycemic control was also analyzed.

participants with T1DM = test: Multiple-dosing crossover euglycemic glucose clamp study, steady-state PK/PD; format: in vivo, human
Description: For both insulins, participants received 0.4 (n = 24) or 0.6 U/kg/day (n = 24) at ~ 8 am for 8 days. Main endpoint: within-day variability (fluctuation) of smoothed glucose infusion rate (GIR) over a 24-h dosing period (GIR-smFL0-24). […] This is an ENCORE abstract previously presented at ADA2017. Funding and editorial support provided by Sanofi (Fig. 1)

[7] = system: adults with T2D using basal insulin; test: DELIVER2 real-world study, switch of basal insulin; format: in vivo, human; settings: PS matched
Protocol: Methods: DELIVER2 used data from Predictive Health Intelligence Environment database of medical records representing 37 integrated delivery networks. […] The endpoints were A1C change from baseline, incidence and event rate of hypoglycemia (hypo) (identified by ICD-9/ICD-10 and/or plasma glucose level ≤ 70 mg/dL), and HCU (incidence and event rate of all-cause, diabetes-, and hypo-related visits) within 6 m.

[8] = system: T2DM pts uncontrolled on BOT with other BI; test: TOP-2 prospective observational study, 6 month interim analysis; format: in vivo, human
Protocol: Adult pts currently on a BOT with an indication for changing their insulin therapy due to non-achievement of glycemic targets (A1c 7.5–10.0%) are enrolled. Primary endpoint (EP) is the rate of pts achieving a fasting plasma glucose (FPG) ≤ 110 mg/dL after 6 and 12 months, respectively. Secondary EPs include change in A1c, FPG, body weight (BW) and insulin dose, hypoglycemia incidence and safety. Here we report on an interim analysis including all German pts, for whom 6 month results were available 15 months after study start (n = 661). […] Less pts experienced nocturnal hypoglycemia (0.5% vs 1.2%). […] Final results are expected for 2018 (Fig. 1)

[9] = system: T2D pts aged ≥ 65 years on basal insulin; test: DELIVER 3 retrospective real-world study; format: in vivo, human
Protocol: Older patients (pts) with T2D are disproportionately impacted by treatment-related hypoglycemia and its adverse consequences. […] Pts had ≥ 12 months (mo) of baseline data and ≥ 6 mo of follow-up data. The effect of cohort on A1C reduction, hypoglycemia incidence/event rate, and achievement of A1C goal at 6 mo were assessed by generalized linear models or logistic regression models with adjustment for baseline characteristics. […] This is an ENCORE abstract previously presented at ADA2017. Funding and editorial support provided by Sanofi.

## CC(C)(c1ccc(O)cc1)c1ccc(O)cc1 [BPA, Bisphenol-A]
OVX female Swiss mice; 15 min, HFD 444 ± 13
  glycemia in GTT: 427 ± 17 mg/dL
OVX female Swiss mice; 30 min, HFD 453 ± 23
  glycemia in GTT: 450 ± 22 mg/dL
[1]
  insulin secretion: 1.8 ± 0.2 ng/islet h

## CN(C)C(=N)N=C(N)N [D + PA + MTF, metformin]
Diabetic pregnant women
  pregnant women with adverse perinatal outcomes / women in group: 5/12

## C[C@@H](O)[C@@H]1NC(=O)[C@H](CCCCN)NC(=O)[C@@H](Cc2c[nH]c3ccccc23)NC(=O)[C@H](Cc2ccccc2)NC(=O)[C@@H](NC(=O)[C@H](N)Cc2ccccc2)CSSC[C@@H](C(=O)N[C@H](CO)[C@@H](C)O)NC1=O [Octreotide]
Patient with glucagonoma
  skin lesions (necrolytic migratory erythema): effective in reducing the number and extent of lesions

## C[C@@H]1[C@H](O)[C@@H](C)/C=C/C=C/C=C/C=C/C=C/C=C/C=C/[C@H](O[C@@H]2O[C@H](C)[C@@H](O)[C@H](N)[C@@H]2O)C[C@@H]2O[C@](O)(C[C@@H](O)C[C@@H](O)[C@H](O)CC[C@@H](O)C[C@@H](O)CC(=O)O[C@H]1C)C[C@H](O)[C@H]2C(=O)O [amphotericin B]
[2]
  clinical response: favorable response

## COc1ccc(Cl)cc1C(=O)NCCc1ccc(S(=O)(=O)NC(=O)NC2CCCCC2)cc1 [sulfonylurea, glibenclamide]
[3]
  patients with positive response (C-peptide > 200 pmol/L): 66.7%

## insulin degludec [IDeg]
Child with CGL type 2; after the first 24 h of Degludeca with RI
  blood glucose level: 232.6 ± 74.7 mg/dL
Child with CGL type 2; first 24 h of Degludeca 9.3 IU/kg/day with RI 18.2 U/kg/day
  glycemia: 180 ± 42 mg/dL
T1D patients < 18 years
  Median HbA1c at 6 months after switch: 7.52%
T1D patients < 18 years; on previous basal insulin or CSII
  Median HbA1c before switch: 8.17%
[4]; CGM after 2 weeks, n = 5 per group, P = 0.84
  24-h mean glucose, median (minimum–maximum): 168 (151–206) mg/dL
[4]; CGM, P = 0.22
  standard deviation from the mean glucose, median (minimum–maximum): 69 (42– 83)
Type 2 diabetic patient
  fasting glycemia (GJ): 171 mg/dL
Type 2 diabetic patient; […] before
  HbA1c: 8.2%
Patient with DRIASM; case report, extreme resistance to SC and IM insulin
  treatment of DRIASM: effective in the treatment of DRIASM, with reduction in hospital admissions and DKA episodes
Patient with DRIASM; differently from all previously basal insulins
  absorption and plasma glucose in test: able to be absorbed and to reduce plasma glucose
Patients with T2D
  A1C reduction over 24 weeks: 0.98%
[5]
  hospitalizations due to DKA: reduction of hospitalizations
[6]
  time to achieve excellent glycemic control, average: 4 days

## insulin glargine [Gla-300]
Participants with T1DM; 0.4 U/kg/day once daily ~8 am for 8 days, steady state, n = 24, p = 0.047
  Within-day GIR variability (GIR-smFL0-24), lower vs. Deg-100: 20%
Participants with T1DM; 0.6 U/kg/day, n = 24
  Within-day GIR variability (GIR-smFL0-24) vs. Deg-100: comparable
[7]
  A1C during 6 m follow-up: 8.40%
[7]; 1827 pts per group
  Mean baseline A1C: 8.95%
Patients with T2D
  A1C reduction over 24 weeks: 1.00%
[8]; n = 661
  mean (± SD) A1c before switching: 8.21 ± 0.8%
[8]; six months after switching to Gla-300
  HbA1c, TOP-2 FAS 6 month [mean±SD]: 7.67 ± 1.0%
[9]; 95% CI 0.581, 1.098, P = 0.166
  achieved A1C < 7.0%, OR vs. other basal insulins: 0.798
[9]; 95% CI 0.749, 1.248, P = 0.797
  achieved A1C < 8.0%, OR vs. other basal insulins: 0.967
